Measurements: ChEMBL document CHEMBL4732190, “Identification of Potent and Long-Acting Single-Chain Peptide Mimetics of Human Relaxin-2 for Cardiovascular Diseases” (J Med Chem, 2021)
*1 amine or outer side, *2 acyl side, *3 side chain or, on linkers, in order; H or OH if unused. Where a SMILES comes first, the peptide text is derived from it. [ ]: non-standard residue; d: D form. β2hAla(2S) = C[C@@H](CN[*:1])C(=O)[*:2]; X4 = CCCC[C@H](O[*:1])C(=O)[*:2]; hLys = NCCCCC[C@H](N)C(=O)O

Assays:
[1] = target: T1, Relaxin receptor 1 (Homo sapiens) (UniProt Q9HBX9); test: Agonist activity at RXFP1 endogenously expressed in human OVCAR-5 cells assessed as increase in IBMX-induced cAMP accumulation pretreated with IBMX for 40 mins followed by compound addition and measured after 30 mins by HTRF assay relative to relaxin; assay type: functional, cell-based; conditions: filed as agonist
T1 sequence (whole entry): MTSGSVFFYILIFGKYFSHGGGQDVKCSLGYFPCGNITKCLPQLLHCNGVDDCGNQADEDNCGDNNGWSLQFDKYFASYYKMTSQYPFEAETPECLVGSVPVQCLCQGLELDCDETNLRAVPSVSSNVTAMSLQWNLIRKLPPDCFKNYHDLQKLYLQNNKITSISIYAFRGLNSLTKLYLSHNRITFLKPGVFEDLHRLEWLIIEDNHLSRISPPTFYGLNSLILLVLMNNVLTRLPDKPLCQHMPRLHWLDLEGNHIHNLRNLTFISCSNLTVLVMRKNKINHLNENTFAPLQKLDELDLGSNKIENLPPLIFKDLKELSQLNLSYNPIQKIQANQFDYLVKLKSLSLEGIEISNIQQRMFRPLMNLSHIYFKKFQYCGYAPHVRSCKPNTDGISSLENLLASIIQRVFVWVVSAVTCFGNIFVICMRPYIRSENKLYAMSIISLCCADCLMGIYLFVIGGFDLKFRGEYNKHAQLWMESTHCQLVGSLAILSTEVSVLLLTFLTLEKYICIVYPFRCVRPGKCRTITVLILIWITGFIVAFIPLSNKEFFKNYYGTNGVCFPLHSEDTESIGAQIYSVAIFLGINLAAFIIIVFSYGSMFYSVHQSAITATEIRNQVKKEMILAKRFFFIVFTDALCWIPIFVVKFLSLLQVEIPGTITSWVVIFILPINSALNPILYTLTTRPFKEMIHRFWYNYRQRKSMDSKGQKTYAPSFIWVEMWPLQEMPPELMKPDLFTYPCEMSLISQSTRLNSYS

Relaxin receptor 1 = target: T2, Relaxin receptor 1 (Homo sapiens, UniProt Q9HBX9); test: Agonist activity at RXFP1 endogenously expressed in human OVCAR-5 cells assessed as increase in IBMX-induced cAMP accumulation pretreated with IBMX for 40 mins followed by compound addition and measured after 30 mins by HTRF assay; assay type: functional, cell-based
T2 sequence (Q9HBX9 whole entry): T1 sequence (whole entry)

Compound | Emax [1] | EC50 (Relaxin receptor 1)
CC[C@H](C)[C@H](NC(=O)[C@H](CCC(N)=O)NC(=O)[C@H](C)NC(=O)[C@H](CCCNC(=N)N)NC(=O)[C@@H](NC(=O)[C@H](CC(C)C)NC(=O)[C@H](CCC(=O)O)NC(=O)[C@H](CCCNC(=N)N)NC(=O)CNC(=O)[C@H](CO)NC(=O)[C@H](CC(C)C)NC(=O)[C@H](CCCCN)NC(=O)[C@@H](NC(=O)[C@@H](NC(=O)[C@H](CCC(=O)O)NC(=O)[C@H](CCC(=O)O)NC(C)=O)C(C)C)[C@@H](C)CC)C(C)C)C(=O)N[C@@H](C)C(=O)NC[C@H](C)C(=O)N[C@@H](CO)C(=O)NCC(=O)N[C@@H](CCSC)C(=O)N[C@@H](CO)C(=O)N[C@H](C(=O)N[C@@H](Cc1c[nH]c2ccccc12)C(=O)N[C@@H](CO)C(=O)N[C@@H](CCCCN)C(=O)N[C@@H](CCCNC(=N)N)C(=O)N[C@@H](CO)C(=O)N[C@@H](CC(C)C)C(N)=O)[C@@H](C)O (HELM PEPTIDE1{[ac].E.E.V.I.K.L.S.G.R.E.L.V.R.A.Q.I.A.[C[C@@H](CN[*:1])C(=O)[*:2]].S.G.M.S.T.W.S.K.R.S.L.[am]}$$$$V2.0) | 91% | 200 nM
CC[C@H](C)[C@H](NC(=O)[C@H](CCC(N)=O)NC(=O)[C@H](C)NC(=O)[C@H](CCCNC(=N)N)NC(=O)[C@@H](NC(=O)[C@H](CCCCN)NC(=O)[C@H](CCC(=O)O)NC(=O)[C@H](CCCNC(=N)N)NC(=O)CNC(=O)[C@H](CCC(=O)O)NC(=O)[C@H](CC(C)C)NC(=O)[C@H](CCCCN)NC(=O)[C@@H](NC(=O)[C@@H](NC(=O)[C@H](CCC(=O)O)NC(=O)[C@H](CCC(=O)O)NC(C)=O)C(C)C)[C@@H](C)CC)C(C)C)C(=O)NC[C@H](C)C(=O)N[C@H](C(=O)N[C@@H](CCC(=O)O)C(=O)NCC(=O)N[C@@H](CCSC)C(=O)N[C@@H](CO)C(=O)N[C@@H](CCCCN)C(=O)N[C@@H](Cc1c[nH]c2ccccc12)C(=O)N[C@@H](CO)C(=O)N[C@@H](CCCCN)C(=O)N[C@@H](CCCNC(=N)N)C(=O)N[C@@H](CCCCN)C(=O)N[C@@H](CCCCN)C(N)=O)[C@@H](C)CC (HELM PEPTIDE1{[ac].E.E.V.I.K.L.E.G.R.E.K.V.R.A.Q.I.[C[C@@H](CN[*:1])C(=O)[*:2]].I.E.G.M.S.K.W.S.K.R.K.K.[am]}$$$$V2.0) | 97% | 45 nM
CC[C@H](C)[C@H](NC(=O)[C@H](CCC(N)=O)NC(=O)[C@H](C)NC(=O)[C@H](CCCNC(=N)N)NC(=O)[C@@H](NC(=O)[C@H](CC(C)C)NC(=O)[C@H](CCC(=O)O)NC(=O)[C@H](CCCNC(=N)N)NC(=O)CNC(=O)[C@H](CO)NC(=O)[C@H](CC(C)C)NC(=O)[C@H](CCCCN)NC(=O)[C@@H](NC(=O)[C@@H](NC(=O)[C@H](CCC(=O)O)NC(=O)[C@H](CCC(=O)O)NC(C)=O)C(C)C)[C@@H](C)CC)C(C)C)C(=O)NC[C@H](C)C(=O)N[C@H](C(=O)N[C@@H](CCC(=O)O)C(=O)NCC(=O)N[C@@H](CCSC)C(=O)N[C@@H](CO)C(=O)N[C@@H](CCCCN)C(=O)N[C@@H](Cc1c[nH]c2ccccc12)C(=O)N[C@@H](CO)C(=O)N[C@@H](CCCCN)C(=O)N[C@@H](CCCNC(=N)N)C(=O)N[C@@H](CCCCN)C(=O)N[C@@H](CCCCN)C(N)=O)[C@@H](C)CC (HELM PEPTIDE1{[ac].E.E.V.I.K.L.S.G.R.E.L.V.R.A.Q.I.[C[C@@H](CN[*:1])C(=O)[*:2]].I.E.G.M.S.K.W.S.K.R.K.K.[am]}$$$$V2.0) | 101% | 230 nM
CC[C@H](C)[C@H](NC(=O)[C@H](CCC(N)=O)NC(=O)[C@H](C)NC(=O)[C@H](CCCNC(=N)N)NC(=O)[C@@H](NC(=O)[C@H](CCCCN)NC(=O)[C@H](CCC(=O)O)NC(=O)[C@H](CCCNC(=N)N)NC(=O)CNC(=O)[C@H](CCC(=O)O)NC(=O)[C@H](CC(C)C)NC(=O)[C@H](CCCCN)NC(=O)[C@@H](NC(=O)[C@@H](NC(=O)[C@H](CCC(=O)O)NC(=O)[C@H](CCC(=O)O)NC(C)=O)C(C)C)[C@@H](C)CC)C(C)C)C(=O)NC[C@H](C)C(=O)N[C@H](C(=O)N[C@@H](CO)C(=O)NCC(=O)N[C@@H](CCSC)C(=O)N[C@@H](CO)C(=O)N[C@H](C(=O)N[C@@H](Cc1c[nH]c2ccccc12)C(=O)N[C@@H](CO)C(=O)N[C@@H](CCCCN)C(=O)N[C@@H](CCCNC(=N)N)C(=O)N[C@@H](CCCCN)C(=O)N[C@@H](CCCCN)C(N)=O)[C@@H](C)O)[C@@H](C)CC (HELM PEPTIDE1{[ac].E.E.V.I.K.L.E.G.R.E.K.V.R.A.Q.I.[C[C@@H](CN[*:1])C(=O)[*:2]].I.S.G.M.S.T.W.S.K.R.K.K.[am]}$$$$V2.0) | 98% | 124 nM
CCCC[C@H](OC(=O)CNC(=O)[C@H](CCC(=O)O)NC(=O)[C@@H](C)CNC(=O)[C@@H](C)CNC(=O)[C@@H](NC(=O)[C@H](CCCCCNC(C)=O)NC(=O)[C@@H](C)CNC(=O)[C@@H](C)CNC(=O)[C@H](CCCCN)NC(=O)[C@H](C)NC(=O)[C@H](CCCNC(=N)N)NC(=O)[C@@H](NC(=O)[C@H](CCCCN)NC(=O)[C@H](CCC(=O)O)NC(=O)[C@H](CCCNC(=N)N)NC(=O)CNC(=O)[C@H](CCC(=O)O)NC(=O)[C@H](CC(C)C)NC(C)=O)C(C)C)[C@@H](C)CC)C(=O)N[C@@H](CO)C(=O)N[C@H](C(=O)N[C@@H](Cc1c[nH]c2ccccc12)C(=O)N[C@@H](CO)C(=O)NC[C@H](C)C(=O)N[C@@H](CCCNC(=N)N)C(=O)N[C@@H](CCCCN)C(=O)N[C@@H](CCCCN)C(N)=O)[C@@H](C)O (Ac-LEGREKVRAK[β2hAla(2S)][β2hAla(2S)][hLys](Ac)I[β2hAla(2S)][β2hAla(2S)]EG[X4]STWS[β2hAla(2S)]RKK-NH2) | 95% | 45 nM
CC[C@H](C)[C@H](NC(=O)[C@H](CCC(N)=O)NC(=O)[C@H](C)NC(=O)[C@H](CCCNC(=N)N)NC(=O)[C@@H](NC(=O)[C@H](CC(C)C)NC(=O)[C@H](CCC(=O)O)NC(=O)[C@H](CCCNC(=N)N)NC(=O)CNC(=O)[C@H](CO)NC(=O)[C@H](CC(C)C)NC(=O)[C@H](CCCCN)NC(=O)[C@@H](NC(=O)[C@@H](NC(C)=O)C(C)C)[C@@H](C)CC)C(C)C)C(=O)NC[C@H](C)C(=O)N[C@H](C(=O)N[C@@H](CO)C(=O)NCC(=O)N[C@@H](CCSC)C(=O)N[C@@H](CO)C(=O)N[C@H](C(=O)N[C@@H](Cc1c[nH]c2ccccc12)C(=O)N[C@@H](CO)C(=O)N[C@@H](CCCCN)C(=O)N[C@@H](CCCNC(=N)N)C(=O)N[C@@H](CO)C(=O)N[C@@H](CC(C)C)C(N)=O)[C@@H](C)O)[C@@H](C)CC (HELM PEPTIDE1{[ac].V.I.K.L.S.G.R.E.L.V.R.A.Q.I.[C[C@@H](CN[*:1])C(=O)[*:2]].I.S.G.M.S.T.W.S.K.R.S.L.[am]}$$$$V2.0) | 78% | 708 nM
CC[C@H](C)[C@H](NC(=O)C(C)CNC(=O)[C@H](NC(=O)[C@H](CCC(N)=O)NC(=O)[C@H](C)NC(=O)[C@H](CCCNC(=N)N)NC(=O)[C@@H](NC(=O)[C@H](CCCCN)NC(=O)[C@H](CCC(=O)O)NC(=O)[C@H](CCCNC(=N)N)NC(=O)CNC(=O)[C@H](CCC(=O)O)NC(=O)[C@H](CC(C)C)NC(C)=O)C(C)C)[C@@H](C)CC)C(=O)N[C@@H](CCC(=O)O)C(=O)NCC(=O)N[C@@H](CCSC)C(=O)N[C@@H](CO)C(=O)N[C@@H](CCCCN)C(=O)N[C@@H](Cc1c[nH]c2ccccc12)C(=O)N[C@@H](CO)C(=O)N[C@@H](CCCCN)C(=O)N[C@@H](CCCNC(=N)N)C(=O)N[C@@H](CCCCN)C(=O)N[C@@H](CCCCN)C(N)=O (stereo partly drawn) | 91% | 43 nM
Ac-VIKLSGRELVRAQIAISGMSTWSKRKK-NH2 | 89% | 522 nM
CC[C@H](C)[C@H](NC(=O)[C@H](CCC(N)=O)NC(=O)[C@H](C)NC(=O)[C@H](CCCNC(=N)N)NC(=O)[C@@H](NC(=O)[C@H](CC(C)C)NC(=O)[C@H](CCC(=O)O)NC(=O)[C@H](CCCNC(=N)N)NC(=O)CNC(=O)[C@H](CO)NC(=O)[C@H](CC(C)C)NC(=O)[C@H](CCCCN)NC(=O)[C@@H](NC(=O)[C@@H](NC(=O)[C@H](CCC(=O)O)NC(=O)[C@H](CCC(=O)O)NC(C)=O)C(C)C)[C@@H](C)CC)C(C)C)C(=O)NC[C@H](C)C(=O)NC[C@H](C)C(=O)N[C@@H](CO)C(=O)NCC(=O)N[C@@H](CCSC)C(=O)N[C@@H](CO)C(=O)N[C@H](C(=O)N[C@@H](Cc1c[nH]c2ccccc12)C(=O)N[C@@H](CO)C(=O)N[C@@H](CCCCN)C(=O)N[C@@H](CCCNC(=N)N)C(=O)N[C@@H](CCCCN)C(=O)N[C@@H](CCCCN)C(N)=O)[C@@H](C)O (HELM PEPTIDE1{[ac].E.E.V.I.K.L.S.G.R.E.L.V.R.A.Q.I.[C[C@@H](CN[*:1])C(=O)[*:2]].[C[C@@H](CN[*:1])C(=O)[*:2]].S.G.M.S.T.W.S.K.R.K.K.[am]}$$$$V2.0) | 94% | 37 nM
